# Laboratory results reported in patent EP2785358B1, “INSULIN-MIMETICS AS THERAPEUTIC ADJUNCTS FOR BONE REGENERATION” (priority 2011, dated 2013).
# Read-outs that look alike come from different tables or passages of the source.
# How the values were obtained:
# [1] = test system: posterolateral lumbar fusion (L4-L5); assay: Spinal fusion: radiographic analysis; settings: n=10, eight weeks
# [2] = test system: posterolateral lumbar fusion (L4-L5); assay: Spinal fusion: MicroCT bone volume; settings: L4/L5 transverse processes and fusion mass, eight weeks
# [3] = test system: posterolateral lumbar fusion (L4-L5); assay: Spinal fusion: manual palpation; settings: n=10, eight weeks
# [4] = test system: femur fractures; settings: four weeks post-fracture
# Description: X-rays are taken at two-week intervals to the day of euthanasia. After euthanasia x-rays are taken as well. To take x-rays, animals will be given a half dose of anesthesia. All groups will be monitored closely for four days after surgery for infection, and the ability to ambulate freely.
# [5] = test system: femur fractures
# Description: The fractured femora were resected at seven and ten days post-fracture, decalcified, dehydrated, embedded in paraffin, and sectioned using standard histological techniques. Sections were stained with Masson's Trichrome (Accustain™ Trichrome Staining kit, Sigma Diagnostics, St. Louis, MO) for histological observation using an Olympus BH2-RFCA microscope (Olympus Optical Co., Ltd., Shinjuku-ku, Tokyo, Japan). Digital images were collected using a Nikon DXM1200F digital camera (Nikon, Tokyo, Japan). Cartilage, new bone, and total callus area were measured from the digital images using Image-Pro Plus software (version 5, Media Cybernetics, Inc., Silver Spring, MD). Total cartilage and new bone area were normalized to total callus area and expressed as the percent area. Two independent reviewers were used to minimize inconsistencies.
# [6] = test system: femur fractures; parameters: Percent Effective Shear Modulus / Percent Effective Shear Stress: scale not given: direction of the effect not stated beside the values; settings: no carrier, 4 weeks post-fracture; for Percent Effective Shear Modulus / Percent Effective Shear Stress / Percent Maximum Torque to Failure / Percent maximum torsional rigidity: normalized to intact femur
# Method: Torsional testing was conducted at 4 weeks post-fracture, using a servohydraulics machine (MTS Sys. Corp., Eden Prairie, MN) with a 20 Nm reaction torque cell (Interface, Scottsdale, AZ). Femurs were tested to failure at a rate of 2.0 deg/sec at four weeks post-fracture. […] In order to compare the biomechanical parameters between different groups, the data was normalized by dividing each fractured femur value by its corresponding intact, contralateral femur value. Torsional mechanical testing is limited by differences in gauge length during bone potting in Field's metal. Placement and dimension of fracture gap can contribute to standard deviations.
# [7] = Zn-high pellet 1.0 mg/kg, listed as zinc
# [8] = Zn-low pellet 0.5 mg/kg, listed as zinc
# [9] = manganese chloride 0.125 mg/kg, 7 days post fracture
# [10] = manganese chloride 0.125 mg/kg, 10 days post fracture
# [11] = manganese chloride 0.3 mg/kg, 7 days post fracture
# [12] = manganese chloride 0.3 mg/kg, 10 days post fracture
# [13] = manganese chloride 0.87 mg/kg, 7 days post fracture
# [14] = manganese chloride 0.87 mg/kg, 10 days post fracture
smiles,measurement,setting,value
[Zn] [Zn],Radiographs: number graded A = solid fusion mass bilaterally,[1]; Zn-high pellet 1.0 mg/kg,7
same,Radiographs: number graded B = unilateral fusion mass,[1]; Zn-high pellet 1.0 mg/kg,3
same,Radiographs: number graded C = small fusion mass bilaterally,[1]; Zn-high pellet 1.0 mg/kg,0
same,Radiographs: number graded D = Graft resorption,[1]; Zn-high pellet 1.0 mg/kg,0
same,Radiographs: number graded A = solid fusion mass bilaterally,[1]; [7],7/10
same,Radiographs: number graded B = unilateral fusion mass,[1]; [7],3/10
same,Radiographs: number graded C = small fusion mass bilaterally,[1]; [7],0/10
same,Radiographs: number graded D = Graft resorption,[1]; [7],0/10
same,Radiographs: number graded A = solid fusion mass bilaterally,[1]; Zn-low pellet 0.5 mg/kg,7
same,Radiographs: number graded B = unilateral fusion mass,[1]; Zn-low pellet 0.5 mg/kg,1
same,Radiographs: number graded C = small fusion mass bilaterally,[1]; Zn-low pellet 0.5 mg/kg,2
same,Radiographs: number graded D = Graft resorption,[1]; Zn-low pellet 0.5 mg/kg,0
same,Radiographs: number graded A = solid fusion mass bilaterally,[1]; [8],7/10
same,Radiographs: number graded B = unilateral fusion mass,[1]; [8],1/10
same,Radiographs: number graded C = small fusion mass bilaterally,[1]; [8],2/10
same,Radiographs: number graded D = Graft resorption,[1]; [8],0/10
same,Mean Bone Volume,[2]; Zn high dose pellet (1.0 mg/kg),172.7 mm^3
same,Mean Bone Volume,[2]; Zn low dose pellet (0.5 mg/kg),172.9 mm^3
same,Manual palpation: number graded A = fused,[3]; Zn-high pellet 1.0 mg/kg,4
same,Manual palpation: number graded B = partially fused,[3]; Zn-high pellet 1.0 mg/kg,1
same,Manual palpation: number graded C = not fused,[3]; Zn-high pellet 1.0 mg/kg,5
same,Manual palpation: number graded A = fused,[3]; [7],4/10
same,Manual palpation: number graded B = partially fused,[3]; [7],1/10
same,Manual palpation: number graded C = not fused,[3]; [7],5/10
same,Manual palpation: number graded A = fused,[3]; Zn-low pellet 0.5 mg/kg,3
same,Manual palpation: number graded B = partially fused,[3]; Zn-low pellet 0.5 mg/kg,4
same,Manual palpation: number graded C = not fused,[3]; Zn-low pellet 0.5 mg/kg,3
same,Manual palpation: number graded A = fused,[3]; [8],3/10
same,Manual palpation: number graded B = partially fused,[3]; [8],4/10
same,Manual palpation: number graded C = not fused,[3]; [8],3/10
"[Cl][Mn][Cl] [MnCl2, manganese chloride]",mineralized tissue on radiographs,[4]; MnCl2 0.25 mg/kg,increased mineralized tissue than saline controls
same,union on radiographs,"[4]; MnCl2 group, saline control had no evidence of union",union at the subperiosteal bony area and at the callus
same,% Cartilage,[5]; [9],4.843 ± 2.3 n=6%
same,% new bone,[5]; [9],15.518 ± 2.69 n=6%
same,% Cartilage,[5]; [10],5.9 ± 4.47 n=5%
same,% new bone,[5]; [10],14.69 ± 11.74 n=5%
same,% Cartilage,[5]; [11],2.859 ± 1.09 n=7%
same,% new bone,[5]; [11],15.604 ± 2.39 n=7%
same,% Cartilage,[5]; [12],11.051 ± 3.05 n=9%
same,% new bone,[5]; [12],"18.866 ± 2.28^∗,# n=9%"
same,% Cartilage,[5]; [13],4.355 ± 3.99 n=3%
same,% new bone,[5]; [13],16.492 ± 3.59 n=3%
same,% Cartilage,[5]; [14],8.227 ± 2.24 n=3%
same,% new bone,[5]; [14],15.948 ± 3.04 n=3%
same,Effective Shear Modulus,[6]; MnCl2 0.083 mg/kg local,8.7×10^2 ± 4.9×10^2 MPa
same,Effective Shear Stress,[6]; MnCl2 0.083 mg/kg local,30 ± 8 MPa
same,Maximum Torque to Failure,[6]; MnCl2 0.083 mg/kg local,272 ± 39 Nmm
same,Maximum Torsional Rigidity,[6]; MnCl2 0.083 mg/kg local,2.6×10^4 ± 1.2×10^4 Nmm^2/rad
same,Percent Effective Shear Modulus,[6]; MnCl2 0.083 mg/kg local,8 ± 7%
same,Percent Effective Shear Stress,[6]; MnCl2 0.083 mg/kg local,8 ± 4%
same,Percent Maximum Torque to Failure,[6]; MnCl2 0.083 mg/kg local,42 ± 5%
same,Percent maximum torsional rigidity,[6]; MnCl2 0.083 mg/kg local,56 ± 30%
same,Effective Shear Modulus,[6]; MnCl2 0.125 mg/kg local,6.4×10^2 ± 8.8×10^1 MPa
same,Effective Shear Stress,[6]; MnCl2 0.125 mg/kg local,21 ± 6 MPa
same,Maximum Torque to Failure,[6]; MnCl2 0.125 mg/kg local,351 ± 59^∗ Nmm
same,Maximum Torsional Rigidity,[6]; MnCl2 0.125 mg/kg local,4.2×10^4 ± 1.1×10^4 Nmm^2/rad
same,Percent Effective Shear Modulus,[6]; MnCl2 0.125 mg/kg local,16 ± 11%
same,Percent Effective Shear Stress,[6]; MnCl2 0.125 mg/kg local,14 ± 5%
same,Percent Maximum Torque to Failure,[6]; MnCl2 0.125 mg/kg local,54 ± 5%
same,Percent maximum torsional rigidity,[6]; MnCl2 0.125 mg/kg local,103 ± 40^∗ Percent
same,Effective Shear Modulus,[6]; MnCl2 0.25 mg/kg local,8.1×10^2 ± 5.0×10^2 MPa
same,Effective Shear Stress,[6]; MnCl2 0.25 mg/kg local,32 ± 11 MPa
same,Maximum Torque to Failure,[6]; MnCl2 0.25 mg/kg local,344 ± 84^∗ Nmm
same,Maximum Torsional Rigidity,[6]; MnCl2 0.25 mg/kg local,3.4×10^4 ± 1.6×10^4 Nmm^2/rad
same,Percent Effective Shear Modulus,[6]; MnCl2 0.25 mg/kg local,14 ± 9%
same,Percent Effective Shear Stress,[6]; MnCl2 0.25 mg/kg local,16 ± 6%
same,Percent Maximum Torque to Failure,[6]; MnCl2 0.25 mg/kg local,55 ± 19%
same,Percent maximum torsional rigidity,[6]; MnCl2 0.25 mg/kg local,80 ± 34^∗ Percent
same,Effective Shear Modulus,[6]; MnCl2 0.30 mg/kg local,7.6×10^2 ± 9.2×10^2 MPa
same,Effective Shear Stress,[6]; MnCl2 0.30 mg/kg local,27 ± 23 MPa
same,Maximum Torque to Failure,[6]; MnCl2 0.30 mg/kg local,323 ± 135^∗ Nmm
same,Maximum Torsional Rigidity,[6]; MnCl2 0.30 mg/kg local,3.0×10^4 ± 2.6×10^4 Nmm^2/rad
same,Percent Effective Shear Modulus,[6]; MnCl2 0.30 mg/kg local,10 ± 12%
same,Percent Effective Shear Stress,[6]; MnCl2 0.30 mg/kg local,16 ± 12%
same,Percent Maximum Torque to Failure,[6]; MnCl2 0.30 mg/kg local,50 ± 22%
same,Percent maximum torsional rigidity,[6]; MnCl2 0.30 mg/kg local,50 ± 37%
same,Effective Shear Modulus,[6]; MnCl2 0.50 mg/kg local,6.2×10^2 ± 3.5×10^2 MPa
same,Effective Shear Stress,[6]; MnCl2 0.50 mg/kg local,19 ± 9 MPa
same,Maximum Torque to Failure,[6]; MnCl2 0.50 mg/kg local,230 ± 83 Nmm
same,Maximum Torsional Rigidity,[6]; MnCl2 0.50 mg/kg local,2.9×10^4 ± 1.2×10^4 Nmm^2/rad
same,Percent Effective Shear Modulus,[6]; MnCl2 0.50 mg/kg local,17 ± 13%
same,Percent Effective Shear Stress,[6]; MnCl2 0.50 mg/kg local,14 ± 7%
same,Percent Maximum Torque to Failure,[6]; MnCl2 0.50 mg/kg local,38 ± 15%
same,Percent maximum torsional rigidity,[6]; MnCl2 0.50 mg/kg local,61 ± 16%
